Laboratory results: the supplement of paper PMC10627819

How the values were obtained:
Assay in all cases: Bliss interaction score (quartile over a dose matrix) (fitness difference); higher = more antagonism (negative = synergy)
S. aureus DSM 20231 = system: S. aureus DSM 20231
Method in brief: (§1)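 The Bliss score was calculated by subtracting the expected fitness, the product of single-drug values, from the observed fitness. OD595 at entry into stationary phase, over the plate's robust no-drug mean and capped at 1, served as the fitness readout. Single-drug values were inferred from combination data, and scores are summarised by quartiles across technical, biological and donor/recipient replicates.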

B. subtilis 168 = system: B. subtilis 168
Method in brief: as §1

S. pneumoniae D39V = system: S. pneumoniae D39V
Method in brief: as §1

S. aureus Newman = system: S. aureus Newman
Method in brief: as §1
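Note: first quartile when negative (synergy) and third quartile when positive (antagonism).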

SMILES | Bliss interaction score (S. aureus DSM 20231) | Bliss interaction score (B. subtilis 168) | Bliss interaction score (S. pneumoniae D39V) | Bliss interaction score (S. aureus Newman) | Bliss interaction score (S. aureus DSM 20231; main component drawn) | Bliss interaction score (B. subtilis 168; main component drawn) | Bliss interaction score (S. pneumoniae D39V; main component drawn) | Bliss interaction score (S. aureus Newman; main component drawn)
O=C(N[C@H](CO)[C@H](O)c1ccc([N+](=O)[O-])cc1)C(Cl)Cl [Chloramphenicol] + O=C(O)[C@H]1/C(=C/CO)O[C@@H]2CC(=O)N21 [Clavulanic] | -0.265 | 0.0981 | -0.0693 | 0.202 |  |  |  | 
CC(=O)O[C@H]1C[C@@]2(C)[C@@H](C[C@@H](O)[C@H]3[C@@]4(C)CC[C@@H](O)[C@@H](C)[C@@H]4CC[C@@]32C)/C1=C(\CCC=C(C)C)C(=O)O [Fusidic acid] + CCN(CC)CCOC(=O)c1ccc(N)cc1 [Procaine] | -0.0218 | -0.0381 | 0.0981 | -0.0177 |  |  |  | 
N[C@@H]1CONC1=O [CycloserineD] + C[C@H]1COc2c(N3CCN(C)CC3)c(F)cc3c(=O)c(C(=O)O)cn1c23 [Levofloxacin] | -0.12 | 0.0199 | 0.0882 | -0.131 |  |  |  | 
O=C1CN(/N=C/c2ccc([N+](=O)[O-])o2)C(=O)N1 [Nitrofurantoin] + CC[C@H]1OC(=O)[C@H](C)C(=O)[C@H](C)[C@@H](O[C@@H]2O[C@H](C)C[C@H](N(C)C)[C@H]2O)[C@](C)(OC)C[C@@H](C)C(=O)[C@H](C)[C@H]2N(CCCCn3cnc(-c4cccnc4)c3)C(=O)O[C@]12C [Telithromycin] | -0.0398 | -0.128 | -0.293 | -0.0641 |  |  |  | 
CC(=O)OC[C@H]1O[C@@H]([S-])[C@H](OC(C)=O)[C@@H](OC(C)=O)[C@@H]1OC(C)=O.CCP(CC)CC.[Au+] [Auranofin] + CCC[C@@H]1C[C@@H](C(=O)N[C@@H]([C@H]2O[C@H](SC)[C@H](O)[C@@H](O)[C@H]2O)[C@@H](C)O)N(C)C1 [Lincomycin] | 0.0235 | 0.066 | -0.0496 | 0.0853 |  |  |  | 
CC[C@H]1OC(=O)[C@H](C)[C@@H](O[C@H]2C[C@@](C)(OC)[C@@H](O)[C@H](C)O2)[C@H](C)[C@@H](O[C@@H]2O[C@H](C)C[C@H](N(C)C)[C@H]2O)[C@](C)(OC)C[C@@H](C)C(=O)[C@H](C)[C@@H](O)[C@]1(C)O [Clarithromycin] + CC[C@H]1OC(=O)[C@H](C)[C@@H](O[C@H]2C[C@@](C)(OC)[C@@H](O)[C@H](C)O2)[C@H](C)[C@@H](O[C@@H]2O[C@H](C)C[C@H](N(C)C)[C@H]2O)[C@](C)(O)C[C@@H](C)C(=O)[C@H](C)[C@@H](O)[C@]1(C)O [Erythromycin] | 0.0159 | -0.0372 | 0.0551 | -0.0296 |  |  |  | 
COc1c(N2C[C@@H]3CCCN[C@@H]3C2)c(F)cc2c(=O)c(C(=O)O)cn(C3CC3)c12 [Moxifloxacin] + Oc1cc(Cl)ccc1Oc1ccc(Cl)cc1Cl [Triclosan] | -0.0397 | 0.0151 | 0.0747 | -0.038 |  |  |  | 
CC(=O)OC[C@H]1O[C@@H]([S-])[C@H](OC(C)=O)[C@@H](OC(C)=O)[C@@H]1OC(C)=O.CCP(CC)CC.[Au+] [Auranofin] + CN[C@H](CC(C)C)C(=O)N[C@H]1C(=O)N[C@@H](CC(N)=O)C(=O)N[C@H]2C(=O)N[C@H]3C(=O)N[C@H](C(=O)N[C@H](C(=O)O)c4cc(O)cc(O)c4-c4cc3ccc4O)[C@H](O)c3ccc(c(Cl)c3)Oc3cc2cc(c3O[C@@H]2O[C@H](CO)[C@@H](O)[C@H](O)[C@H]2O[C@H]2C[C@](C)(N)[C@H](O)[C@H](C)O2)Oc2ccc(cc2Cl)[C@H]1O [Vancomycin] | -0.0311 | 0.0381 | 0.0929 | 0.0325 |  |  |  | 
CC(=O)OC[C@H]1O[C@@H]([S-])[C@H](OC(C)=O)[C@@H](OC(C)=O)[C@@H]1OC(C)=O.CCP(CC)CC.[Au+] [Auranofin] + CCC(C)C1C(=O)NC(=C)C(=O)NC(C(=O)NC(CSCC(C(=O)N1)NC(=O)/C(=C/C)/NC(=O)C(C(C)CC)N)C(=O)NC2C(SCC(NC(=O)CNC(=O)C3CCCN3C2=O)C(=O)NC(CCCCN)C(=O)NC4C(SCC(NC(=O)CNC(=O)C(NC(=O)C(NC(=O)C(NC(=O)CNC4=O)C)CC(C)C)CCSC)C(=O)NC(CC(=O)N)C(=O)NC(CCSC)C(=O)NC(CCCCN)C(=O)NC5C(SCC6C(=O)NC(C(=O)NC(CSC(C(C(=O)N6)NC(=O)C(NC5=O)C)C)C(=O)NC(CO)C(=O)NC(C(C)CC)C(=O)NC(CC7=CN=CN7)C(=O)NC(C(C)C)C(=O)NC(=C)C(=O)NC(CCCCN)C(=O)O)CC8=CN=CN8)C)C)C)CC(C)C [Nisin] |  |  |  |  | -0.0361 | -0.0321 | -0.0798 | 0.0274
CCC[C@@H]1C[C@@H](C(=O)N[C@@H]([C@H]2O[C@H](SC)[C@H](O)[C@@H](O)[C@H]2O)[C@H](C)Cl)N(C)C1 [Clindamycin] + CC(=O)O[C@H]1C[C@@]2(C)[C@@H](C[C@@H](O)[C@H]3[C@@]4(C)CC[C@@H](O)[C@@H](C)[C@@H]4CC[C@@]32C)/C1=C(\CCC=C(C)C)C(=O)O [Fusidic acid] | 0.0254 | 0.0418 | 0.0662 | 0.0307 |  |  |  | 
CC(=O)OC[C@H]1O[C@@H]([S-])[C@H](OC(C)=O)[C@@H](OC(C)=O)[C@@H]1OC(C)=O.CCP(CC)CC.[Au+] [Auranofin] + C[n+]1ccc(-c2cc[n+](C)cc2)cc1 [Paraquat] | -0.0369 | -0.0338 | 0.0914 | -0.0941 |  |  |  | 
CCC[C@@H]1C[C@@H](C(=O)N[C@@H]([C@H]2O[C@H](SC)[C@H](O)[C@@H](O)[C@H]2O)[C@@H](C)O)N(C)C1 [Lincomycin] + Oc1cc(Cl)ccc1Oc1ccc(Cl)cc1Cl [Triclosan] | -0.224 | -0.0218 | -0.119 | 0.0423 |  |  |  | 
N[C@@H]1CONC1=O [CycloserineD] + CCCCCCCCCC(=O)N[C@@H]1[C@H]([C@@H]([C@H](O[C@H]1OC2=C3C=C4C=C2OC5=C(C=C(C=C5)[C@H]([C@H]6C(=O)N[C@@H](C7=C(C(=CC(=C7)O)OC8[C@H]([C@H]([C@@H]([C@H](O8)CO)O)O)O)C9=C(C=CC(=C9)[C@H](C(=O)N6)NC(=O)[C@@H]4NC(=O)[C@@H]1C2=CC(=CC(=C2)OC2=C(C=CC(=C2)[C@H](C(=O)N[C@H](CC2=CC(=C(O3)C=C2)Cl)C(=O)N1)N)O)O)O)C(=O)O)O[C@H]1[C@@H]([C@H]([C@@H]([C@H](O1)CO)O)O)NC(=O)C)Cl)CO)O)O [Teicoplanin] |  |  |  |  | 0.0399 | 0.0976 | -0.0849 | 0.054
CC(=O)OC[C@H]1O[C@@H]([S-])[C@H](OC(C)=O)[C@@H](OC(C)=O)[C@@H]1OC(C)=O.CCP(CC)CC.[Au+] [Auranofin] + CCCCCCCCCC(=O)N[C@@H]1[C@H]([C@@H]([C@H](O[C@H]1OC2=C3C=C4C=C2OC5=C(C=C(C=C5)[C@H]([C@H]6C(=O)N[C@@H](C7=C(C(=CC(=C7)O)OC8[C@H]([C@H]([C@@H]([C@H](O8)CO)O)O)O)C9=C(C=CC(=C9)[C@H](C(=O)N6)NC(=O)[C@@H]4NC(=O)[C@@H]1C2=CC(=CC(=C2)OC2=C(C=CC(=C2)[C@H](C(=O)N[C@H](CC2=CC(=C(O3)C=C2)Cl)C(=O)N1)N)O)O)O)C(=O)O)O[C@H]1[C@@H]([C@H]([C@@H]([C@H](O1)CO)O)O)NC(=O)C)Cl)CO)O)O [Teicoplanin] |  |  |  |  | 0.0469 | -0.0433 | 0.0761 | 0.0303
O=C(O[C@@H]1Cc2c(O)cc(O)cc2O[C@@H]1c1cc(O)c(O)c(O)c1)c1cc(O)c(O)c(O)c1 [EGCG] + CC[C@H]1OC(=O)[C@H](C)C(=O)[C@H](C)[C@@H](O[C@@H]2O[C@H](C)C[C@H](N(C)C)[C@H]2O)[C@](C)(OC)C[C@@H](C)C(=O)[C@H](C)[C@H]2N(CCCCn3cnc(-c4cccnc4)c3)C(=O)O[C@]12C [Telithromycin] | -0.079 | 0.0403 | 0.0892 | 0.0859 |  |  |  | 
N[C@@H]1CONC1=O [CycloserineD] + Cc1onc(-c2ccccc2)c1C(=O)N[C@@H]1C(=O)N2[C@@H]1SC(C)(C)[C@@H]2C(=O)O [Oxacillin] | 0.0729 | 0.0509 | -0.17 | -0.0567 |  |  |  | 
CC(=O)O[C@H]1C[C@@]2(C)[C@@H](C[C@@H](O)[C@H]3[C@@]4(C)CC[C@@H](O)[C@@H](C)[C@@H]4CC[C@@]32C)/C1=C(\CCC=C(C)C)C(=O)O [Fusidic acid] + CO[C@@]12[C@H](COC(N)=O)C3=C(C(=O)C(C)=C(N)C3=O)N1C[C@@H]1N[C@@H]12 [MitomycinC] | 0.0263 | 0.0298 | -0.149 | 0.0159 |  |  |  | 
CC(=O)OC[C@H]1O[C@@H]([S-])[C@H](OC(C)=O)[C@@H](OC(C)=O)[C@@H]1OC(C)=O.CCP(CC)CC.[Au+] [Auranofin] + COc1cccc2c1C(=O)c1c(O)c3c(c(O)c1C2=O)C[C@@](O)(C(=O)CO)C[C@@H]3O[C@H]1C[C@H](N)[C@H](O)[C@H](C)O1 [Doxorubicin] | -0.0288 | 0.0674 | -0.0943 | 0.112 |  |  |  | 
N[C@@H]1CONC1=O [CycloserineD] + CC[C@H]1OC(=O)[C@H](C)[C@@H](O[C@H]2C[C@@](C)(OC)[C@@H](O)[C@H](C)O2)[C@H](C)[C@@H](O[C@@H]2O[C@H](C)C[C@H](N(C)C)[C@H]2O)[C@](C)(O)C[C@@H](C)C(=O)[C@H](C)[C@@H](O)[C@]1(C)O [Erythromycin] | -0.043 | 0.077 | 0.0918 | -0.0485 |  |  |  | 
CC(=O)O[C@H]1C[C@@]2(C)[C@@H](C[C@@H](O)[C@H]3[C@@]4(C)CC[C@@H](O)[C@@H](C)[C@@H]4CC[C@@]32C)/C1=C(\CCC=C(C)C)C(=O)O [Fusidic acid] + CC(C1CCC(C(O1)OC2C(CC(C(C2O)OC3C(C(C(CO3)(C)O)NC)O)N)N)N)NC [Gentamicin] |  |  |  |  | 0.034 | -0.0712 | -0.0713 | 0.0572
N[C@@H]1CONC1=O [CycloserineD] + COc1cc(Cc2cnc(N)nc2N)cc(OC)c1OC [Trimethoprim] | -0.0585 | 0.0782 | 0.0932 | -0.067 |  |  |  | 
N[C@@H]1CONC1=O [CycloserineD] + COc1ccc(C[C@H](N)C(=O)N[C@H]2[C@@H](O)[C@H](n3cnc4c(N(C)C)ncnc43)O[C@@H]2CO)cc1 [Puromycin] | 0.0925 | 0.0439 | 0.142 | 0.051 |  |  |  | 
N[C@@H]1CONC1=O [CycloserineD] + C[C@@H]1O[C@@H]1P(=O)(O)O [Fosfomycin] | -0.0611 | -0.046 | 0.0808 | -0.033 |  |  |  | 
CCCCCCCCCC(=O)N[C@H]1[C@H](Oc2c3cc4cc2Oc2ccc(cc2Cl)[C@@H](O[C@@H]2O[C@H](CO)[C@@H](O)[C@H](O)[C@H]2NC(C)=O)[C@@H]2NC(=O)[C@H](NC(=O)[C@@H]4NC(=O)[C@H]4NC(=O)[C@@H](Cc5ccc(c(Cl)c5)O3)NC(=O)[C@H](N)c3ccc(O)c(c3)Oc3cc(O)cc4c3)c3ccc(O)c(c3)-c3c(O[C@H]4O[C@H](CO)[C@@H](O)[C@H](O)[C@@H]4O)cc(O)cc3[C@@H](C(=O)O)NC2=O)O[C@H](CO)[C@@H](O)[C@@H]1O [Teicoplanin] + CC[C@H]1OC(=O)[C@H](C)C(=O)[C@H](C)[C@@H](O[C@@H]2O[C@H](C)C[C@H](N(C)C)[C@H]2O)[C@](C)(OC)C[C@@H](C)C(=O)[C@H](C)[C@H]2N(CCCCn3cnc(-c4cccnc4)c3)C(=O)O[C@]12C [Telithromycin] |  |  |  |  | 0.0617 | 0.0347 | 0.0575 | 0.0616
CC(=O)OC[C@H]1O[C@@H]([S-])[C@H](OC(C)=O)[C@@H](OC(C)=O)[C@@H]1OC(C)=O.CCP(CC)CC.[Au+] [Auranofin] + O=C(O)[C@H]1/C(=C/CO)O[C@@H]2CC(=O)N21 [Clavulanic] | -0.188 | -0.0681 | -0.0729 | 0.167 |  |  |  | 
